# In article PMC3587609, “A Novel Cell-Penetrating Peptide Derived from Human Eosinophil Cationic Protein” (PLoS ONE, 2013):
# Legend:
# Beas-2B cells [1] = experiment: Cell-based ELISA: binding of FITC-peptides to Beas-2B cells; settings: 5 µM FITC-peptides, 4°C, 1 h, washed twice with PBS, cell-based ELISA (FITC fluorescence), FITC-ECP32–41 bound normalized to 100%, mean ± S.D., n = 4
# Procedure: Cells (2×10^4/well) were seeded into 96-well black plate and incubated under a 5% CO2 atmosphere at 37°C for 24 h. Each well was then washed with 150 µl ice-cold PBS. To prevent non-specific antibody binding, BSA was used as a blocking agent, and PBS containing 2% (w/v) BSA was added to each well at 4°C and incubated for 1 h. The wells were then washed with 100 µl ice-cold PBS. FITC-conjugated peptides were diluted to 10, 20, or 100 µM in PBS and then, medium (95 µl) and a peptide/PBS solution (5 µl) were gently mixed, added into a well, and the plate was placed on ice for 1 h. Each well was then washed with 100 µl PBS and the FITC fluorescent intensity for each sample was measured using a fluorescence spectrophotometer (Wallac Victor II, Perkin Elmer, USA) and excitation and emission wavelengths of 485 nm and 521 nm respectively.
# Beas-2B cells [2] = experiment: Flow cytometry: internalization of FITC-peptides into Beas-2B cells; format: cell-based; settings: 5 µM FITC-peptides, 37°C, 1 h, washed, trypsinized 37°C 15 min, cells treated with ECP32–41 set as 100%, mean ± S.D., n = 4
# Procedure: Internalization of FITC-ECP^32–41 and FITC-EDN^32–41 was measured as the median ﬂuorescence intensity (MFI) of 6.0×10^5 Beas-2B cells that had been treated with one of the FITC-labelled peptides (1 to 20 µM) at 37°C for 1 h, and then treated with trypsin to remove surface-bound peptides. […] When Beas-2B cells were treated with 5 µM of a FITC-peptide at 37°C, the fluorescent signal for FITC-ECP^32–41 increased within 5 min, and reached plateau at 30 min (Figure 1B).
# Figure 1 Internalization of ECP^32–41 and EDN^32–41. (A) Beas-2B cells were incubated with 1, 5, 10, or 20 µM FITC-ECP^32–41, FITC-EDN^32–41, or FITC at 37°C for 1 h. […] (B) Beas-2B cells were incubated with 5 µM FITC-ECP^32–41, FITC-EDN^32–41, or FITC at 37°C for 5, 10, 30, or 60 min. The cells were then treated as described in (A) and subjected to flow cytometry. The results in (A) and (B) are expressed as the mean ± standard deviation (S.D.), n = 3. (C) Beas-2B cells were incubated with 5 µM FITC-ECP^32–41, FITC-EDN^32–41, or FITC at 37°C for 5 or 60 min before CLSM. Nuclei were stained with Hoechst 34850. Scale bar: 20 µm.
# Cells (3.0×10^5/well) were added into six-well plates and cultured in the indicated medium. […] The fluorescent intensities of the cell samples were measured using a FACSCalibur flow cytometer (BD Biosciences, Franklin Lakes, NJ) and excitation and emission wavelengths of 488 nm and 515–545 nm respectively. […]
# CHO-pgsA745 cells = experiment: Cell-based ELISA: binding to GAG-deficient CHO cells; design: species or system Chinese hamster; settings: CHO-pgsA745 cells (no GAG), 5 µM FITC-ECP32–41, 4°C, 1 h, CHO-K1 normalized to 100%, n = 3
# Procedure: (§1) Cell-membrane GAGs including HS, CS/DS, and HA are necessary for CPP internalization, [6]. To assess the effect of GAGs on ECP^32–41 cellular binding ability, soluble GAGs including LMWH, CSC, and HA were used as competitors to inhibit the attachment of ECP^32–41 to Beas-2B cells. […] To clarify the roles of cell-surface HS and CS, the binding of ECP^32–41 to wild-type and two mutant strains of Chinese hamster ovary (CHO) cells was assessed by ELISA. […] CHO-pgsA745 cells are deficient in xylosyltransferase so that no GAG was present on the surface. […] GAGs, and especially HSPGs, are therefore crucial for the initial interaction of ECP^32–41 with cell surfaces.
# (§2) Figure 2 Cell-surface GAG-dependent binding of ECP^32–41. […] After washed twice with PBS, cells were subjected to ELISA. […] (B) CHO cells were incubated with 5 µM FITC-ECP^32–41 at 4°C for 1 h, washed twice with PBS, and subjected to ELISA. The amount of FITC-ECP^32–41 bound to CHO-K1 cells was normalized to 100%.
# (§3) Cells (2×10^4/well) were seeded into 96-well black plate and incubated under a 5% CO2 atmosphere at 37°C for 24 h. Each well was then washed with 150 µl ice-cold PBS. […] Each well was then washed with 100 µl PBS and the FITC fluorescent intensity for each sample was measured using a fluorescence spectrophotometer (Wallac Victor II, Perkin Elmer, USA) and excitation and emission wavelengths of 485 nm and 521 nm respectively.
# CHO-pgsD677 cells = experiment: Cell-based ELISA: binding to HS-deficient CHO cells; design: species or system Chinese hamster; settings: CHO-pgsD677 cells (lack HS), 5 µM FITC-ECP32–41, 4°C, 1 h, CHO-K1 normalized to 100%, n = 3
# Procedure: as §1, §2, §3
# Beas-2B cells [3] = experiment: Membrane disruption assay (LDH leakage); format: cell-based; settings: up to 100 µM, 37°C, 24 h, 0.1% Triton X-100 = 100% leakage, P>0.05, n = 3
# Procedure: Lactate dehydrogenase (LDH) was used to quantify membrane disruption. The release of LDH from cells was measured by Promega CytoTox-ONE assay (Promega, USA). […] Cell samples were then exposed to different concentrations of ECP^32–41. After 24 h, 100 µl of extracellular medium was transferred to a black 96-well plate containing 100 µl of CytoTox-ONE reagent, incubated at RT for 10 min. Fluorescent intensity for each sample was measured using a fluorescence spectrophotometer (Wallac Victor II, Perkin Elmer, USA) and excitation and emission wavelengths of 540 nm and 590 nm respectively.
sequence,measurement,setting,value
NYRWRCKNQN [ECP^32–41],Binding (%),Beas-2B cells [1],100%
same,Penetrating (%),Beas-2B cells [2],100%
same,reduction of binding versus CHO-K1 cells,CHO-pgsA745 cells,52%
same,reduction of binding versus CHO-K1 cells,CHO-pgsD677 cells,31%
same,"LDH levels (membrane disruption), treated versus untreated cells",Beas-2B cells [3],no significant changes
